Data published in PMC7070167, “Cell‐permeable high‐affinity tracers for Gq proteins provide structural insights, reveal distinct binding kinetics and identify small molecule inhibitors” (British Journal of Pharmacology, 2020).
Like-named read-outs stand apart in the source and are kept apart here. *1 amine or outer side, *2 acyl side, *3 side chain or, on linkers, in order; H or OH if unused. Where a SMILES comes first, the peptide text is derived from it. Bridges are numbered along the chain shown (N, C = ends). [ ]: non-standard residue; d: D form. The star is where a group is joined. Leu(3R-O(AcLeu(3R-OH))) = CC(=O)N[C@H](C(=O)O[C@H](C(C)C)[C@H](N)C(=O)O)[C@H](O)C(C)C; Leu(3R-OH,Nα-propionyl) = CCC(=O)N[C@H](C(=O)*)[C@H](O)C(C)C; X1 = CC(C)[C@@H](O[*:3])[C@H](N[*:1])C(=O)[*:2]; NMeT = CN[C@H](C(=O)O)[C@@H](C)O; dPhLac = O=C(O)[C@H](O)Cc1ccccc1; NMeA = CN[C@@H](C)C(=O)O; NMeDha = C=C(NC)C(=O)O

What was measured:
[1] = test system: Gq signalling via recombinantly expressed human P2Y1 receptor; assay: Calcium mobilization assay, ADP-induced (P2Y1 receptor) in 1321N1 astrocytoma cells; type: cell-based; details: Homo sapiens; versus ADP (EC80), P2Y1 receptor, 1321N1 astrocytoma cells; read-out: pIC50, inhibition of calcium mobilization (converted)
Protocol: (§1) The functional activity of YM, FR, and Ebselen as Gq protein inhibitors was determined by assessing their ability to antagonize ADP‐induced calcium mobilization in 1321N1 astrocytoma cells stably transfected with the human P2Y1 receptor, which is a Gq‐coupled receptor. In addition, the compounds' inhibitory effects on Carbachol‐induced calcium mobilization were studied in the same cell line, which endogenously express the Gq‐coupled muscarinic M3 ACh receptor. The assays were performed according to a previously described procedure (Rafehi et al., 2017) using a NOVOstar microplate reader (BMG Labtech, Offenburg, Germany).

[2] = molecular target: T1, Gq proteins (Homo sapiens, UniProt P50148); assay: Competition binding at intact human platelets; details: 37°C
T1 construct: Native cell membrane preparations from rat brain cortex and human blood platelets; host or cells: human platelets (intact suspension or membrane preparation)
T1 sequence (P50148 1-359): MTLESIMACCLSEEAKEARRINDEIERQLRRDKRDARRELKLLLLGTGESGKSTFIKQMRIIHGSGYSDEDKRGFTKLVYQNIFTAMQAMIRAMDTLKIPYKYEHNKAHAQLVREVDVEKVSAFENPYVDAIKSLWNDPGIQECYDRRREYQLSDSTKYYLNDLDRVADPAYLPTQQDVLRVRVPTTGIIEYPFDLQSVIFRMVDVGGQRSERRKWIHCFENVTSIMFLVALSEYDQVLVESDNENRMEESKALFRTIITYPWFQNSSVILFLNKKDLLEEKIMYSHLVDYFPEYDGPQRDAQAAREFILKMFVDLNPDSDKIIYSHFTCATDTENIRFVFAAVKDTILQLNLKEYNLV
Protocol: Apheresis‐purified human thrombocyte‐plasma concentrates (PRP) were obtained from the blood bank, University of Bonn, in accordance with ethical guidelines, and directly used. For radioligand binding assays, they were diluted with 50‐mM Tris–HCl buffer, pH 7.4, to obtain a concentration of 7.5 × 10^6 platelets/50 μl (corresponding to a 1:10 dilution).
The experiments were performed in 50‐mM Tris–HCl buffer, pH 7.4. The final assay volume of 200 μl contained 5 μl of test compound in DMSO, 50 μl of [^3H]PSB‐15900 or [^3H]PSB‐16254, respectively, in buffer, 5 nM of final concentration, and 100 μl of human platelet membrane preparation (50 μg of protein) or intact human platelets (7.5 × 10^6 cells/vial). Non‐specific binding was determined in the presence of 5‐μM FR. The incubation was started by the addition of membrane preparation and was performed at 37°C for 1 hr with gentle shaking. It was terminated by rapid vacuum filtration through GF/C glass‐fibre filters using a Brandel 24‐well harvester. The filters were rinsed three times with approximately 3 ml each of ice‐cold Tris–HCl buffer, 50 mM, pH 7.4 containing 0.1% Tween 20 and 0.1% BSA, to separate bound from free radioligand. The filters were punched out and transferred to scintillation vials. Luma Safe® scintillation cocktail (2.5 ml) was added, and after 6 hr of incubation, the samples were counted for 1 min each, using a liquid scintillation counter (counting efficiency 53%). Experiments in the presence of GTP were additionally performed after preincubation of the membrane preparation with GTP for 1 hr. pIC50 and pKi values were calculated using equations for one‐site competition as implemented in GraphPad Prism 6.01 (GraphPad Inc., La Jolla, CA, USA).

[3] = test system: Gq signalling via endogenously expressed M3 receptor; assay: Calcium mobilization assay, carbachol-induced (M3 receptor) in 1321N1 astrocytoma cells; type: cell-based, human; details: Homo sapiens, versus Carbachol (EC80), M3 receptor, read-out: pIC50, inhibition of calcium mobilization (converted)
Protocol: as §1

[4] = versus [^3H]PSB‐15900 (5 nM), read-out: pKi (converted)
[5] = versus [³H]PSB-15900 (5 nM), read-out: Ki

**Q.** Which results are given for C=C1C(=O)N[C@@H](C)C(=O)N(C)[C@@H](C)C(=O)N[C@@H]([C@H](OC(=O)[C@@H](NC(=O)CC)[C@H](O)C(C)C)C(C)C)C(=O)N(C)[C@@H]([C@@H](C)OC)C(=O)O[C@H](C(C)C)[C@H](NC(C)=O)C(=O)O[C@H](Cc2ccccc2)C(=O)N1C [FR, FR900359] (Ac-[X1][dPhLac][NMeDha]A[NMeA][X1](Leu(3R-OH,Nα-propionyl))[NMeT](Me); ester 1-C)?
**A.** IC50 [1]: 0.692 nM; Ki [2, 4]: 2.09 nM; Ki [2, 5]: 2.14 ± 0.87 nM; IC50 [3]: 0.741 nM

**Q.** Which results are given for C=C1C(=O)N[C@@H](C)C(=O)N(C)[C@@H](C)C(=O)N[C@@H]([C@H](OC(=O)[C@@H](NC(C)=O)[C@H](O)C(C)C)C(C)C)C(=O)N(C)[C@@H]([C@@H](C)OC)C(=O)O[C@H](C)[C@H](NC(C)=O)C(=O)O[C@H](Cc2ccccc2)C(=O)N1C [YM, YM‐254890] (Ac-T[dPhLac][NMeDha]A[NMeA][Leu(3R-O(AcLeu(3R-OH)))][NMeT](Me); ester 1-C)?
**A.** IC50 [1]: 0.955 nM; Ki [2, 4]: 2.09 nM; Ki [2, 5]: 2.29 ± 0.38 nM; IC50 [3]: 0.891 nM
